What all share (format): cell-based
For one assay, the target named is T1, KRAS G12D (Homo sapiens, UniProt P01116, G12D).
T1 construct: AsPc-1-KRAS (G12D)-HiBit-KI cell (Pharmaron); host or cells: AsPc-1-KRAS (G12D)-HiBit-KI cells (HiBiT knock-in at the endogenous KRAS locus)
As to the kind of experiment: KRAS G12D HiBit assay. The note with it: AsPc-1-KRAS (G12D)-HiBit-KI cell, compound treatment for 24 hours; for DC50: absolute DC50. Put shortly:
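HiBiT luminescence, detected by adding lytic buffer, substrate and LgBiT protein, served as the KRAS G12D read-out. Compounds, serially diluted 3-fold over 10 points from 0.3 mM DMSO stock, were on cells for 24 h; percent inhibition normalized to cells given 0.1% DMSO only.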

A further assay has as its target T2, KRAS G12V (Homo sapiens, UniProt P01116, G12V).
T2 construct: SW620-KRAS (G12V)-HiBit-KI cell (Pharmaron); host or cells: SW620-KRAS (G12V)-HiBit-KI cells (HiBiT knock-in at the endogenous KRAS locus)
The assay is described as follows: KRAS G12V HiBit assay. The note with it: SW620-KRAS (G12V)-HiBit-KI cells, compound treatment for 24 hours, class symbols. The method, boiled down:
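Luminescence from lytic Nano-Glo HiBiT detection with LgBiT read KRAS G12V levels after 24 h compound exposure. Dilutions were 10-point, 3-fold, from a 0.3 mM DMSO stock. Degradation activity was normalised to cells given 0.1% DMSO alone.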

The next assay has as its target T3, KRAS (Homo sapiens, UniProt P01116).
T3 construct: endogenous in cells; host or cells: KE39 (KRAS amplified) cells
As to the kind of experiment: KRASamp MSD assay. The conditions noted are these: KE39 (KRAS amplified) cells, treated with test compounds for 24 hr, MSD readout of KRAS degradation. Put shortly:
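Degradation DC50 derived by curve fitting, with KRAS levels quantified by MSD electrochemiluminescence (capture/detection antibodies, recombinant WT KRAS standard). Lysates prepared from KE39 cells (KRAS amplified) exposed to test compounds for 24 hr.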

[1] abbreviates: numeric bounds given in place of class symbols.

T1 sequence (P01116 1-188 isoform P01116-2 G12D): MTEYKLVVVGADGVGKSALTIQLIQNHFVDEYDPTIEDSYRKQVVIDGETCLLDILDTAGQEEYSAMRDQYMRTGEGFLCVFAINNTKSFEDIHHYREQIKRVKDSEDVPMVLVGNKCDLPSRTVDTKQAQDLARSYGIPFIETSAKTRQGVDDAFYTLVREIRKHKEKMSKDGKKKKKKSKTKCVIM
T2 sequence (P01116 1-188 isoform P01116-2 G12V): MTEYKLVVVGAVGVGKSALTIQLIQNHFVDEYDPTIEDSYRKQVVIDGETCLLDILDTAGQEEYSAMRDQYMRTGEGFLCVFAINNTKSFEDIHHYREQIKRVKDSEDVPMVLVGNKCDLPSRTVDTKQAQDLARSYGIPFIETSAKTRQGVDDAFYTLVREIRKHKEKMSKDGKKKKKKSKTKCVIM
T3 sequence (P01116 1-188 isoform P01116-2): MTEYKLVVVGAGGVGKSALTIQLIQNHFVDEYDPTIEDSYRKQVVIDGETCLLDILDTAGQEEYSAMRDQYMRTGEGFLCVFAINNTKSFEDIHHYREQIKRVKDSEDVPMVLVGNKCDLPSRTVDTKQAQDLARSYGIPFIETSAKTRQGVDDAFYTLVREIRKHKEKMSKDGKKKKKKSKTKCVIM

Regarding `CCc1c(F)ccc2cc(O)cc(-c3ncc4c(N5CCC[C@@](C)(O)C5)nc(OC[C@@]56CCCN5[C@H](COC(=O)N5CCC(CN7CCC(c8ccc9c(c8)n(C)c(=O)n9C8CCC(=O)NC8=O)CC7)CC5)CC6)nc4c3F)c12` (stereo partly drawn) [Compound 1, [(3S,8S)-8-[[7-(8-Ethyl-7-fluoro-3-hydroxy-1-naphthyl)-8-fluoro-4-[(3R)-3-hydroxy-3-methyl-1-piperidyl]pyrido[4,3-d]pyrimidin-2-yl]oxymethyl]-1,2,3,5,6,7-hexahydropyrrolizin-3-yl]methyl 4-[[4-[1-(2,6-dioxo-3-piperidyl)-3-methyl-2-oxo-benzimidazol-5-yl]-1-piperidyl]methyl]piperidine-1-carboxylate], the DC50 on KRAS G12D (class symbols) was < 100 nM; at KRAS G12V, < 10 nM; on KRAS, < 1 nM. Also, at KRAS G12D (class symbols), the “Average Dmax” value is “A (Dmax greater than 50%)”.

In the case of `C#Cc1c(F)ccc2cc(O)cc(-c3ncc4c(N5CCC[C@@](C)(O)C5)nc(OC[C@@]56CCCN5[C@H](COC(=O)N5CC(N7CCC(N8CCC(c9ccc%10c(c9)n(C)c(=O)n%10C9CCC(=O)NC9=O)CC8)CC7)C5)CC6)nc4c3F)c12` (stereo partly drawn) [Compound 322, ((3S,7aS)-7a-(((7-(8-ethynyl-7-fluoro-3-hydroxynaphthalen-1-yl)-8-fluoro-4-((R)-3-hydroxy-3-methylpiperidin-1-yl)pyrido[4,3-d]pyrimidin-2-yl)oxy)methyl)hexahydro-1H-pyrrolizin-3-yl)methyl 3-(4-(1-(2,6-dioxopiperidin-3-yl)-3-methyl-2-oxo-2,3-dihydro-1H-benzo[d]imidazol-5-yl)-[1,4′-bipiperidin]-1′-yl)azetidine-1-carboxylate], the DC50 is > 100 nM at KRAS G12D (setting [1]), > 100 nM on KRAS G12V and ≥ 10 nM at KRAS.

For the molecule `C#Cc1c(F)ccc2cccc(-c3ncc4c(N5CCC[C@@](C)(O)C5)nc(OCC5(CN6CC7(C6)CN(c6ccc8c(c6)n(C)c(=O)n8C6CCC(=O)NC6=O)C7)CC5)nc4c3F)c12` (some centres unmarked) [Compound 31], the figures for the DC50 on KRAS G12D (class symbols), on KRAS G12V and at KRAS were > 300 nM, > 100 nM and ≥ 10 nM, respectively.

On to `CCc1c(F)ccc2cc(O)cc(-c3ncc4c(N5CCC[C@@](C)(O)C5)nc(OC[C@@]56CCCN5[C@H](COC(=O)N5CCN(CC7CCN(c8ccc9c(c8)n(C)c(=O)n9C8CCC(=O)NC8=O)CC7)CC5)CC6)nc4c3F)c12` (stereo partly drawn) [Compound 97, [(3S,8S)-8-[[7-(8-ethyl-7-fluoro-3-hydroxy-1-naphthyl)-8-fluoro-4-[(3R)-3-hydro-xy-3-methyl-1-piperidyl]pyrido[4,3-d]pyrimidin-2-yl]oxymethyl]-1,2,3,5,6,7-hexahydropyrrolizin-3-yl]methyl 4-[[1-[1-(2,6-dioxo-3-piperidyl)-3-methyl-2-oxo-benzimidazol-5-yl]-4-piperidyl]methyl]piperazine-1-carboxylate], for which the DC50 at KRAS G12D (class symbols) was < 100 nM; at KRAS G12V, < 10 nM; at KRAS, < 1 nM. Further, the Dmax at KRAS G12D (class symbols) was > 50%.

Take `CCc1c(F)ccc2cc(O)cc(-c3cc4nc(OC[C@@]56CCCN5[C@H](COC(=O)N5CCC(CN7CCC(c8ccc9c(c8)n(C)c(=O)n9C8CCC(=O)NC8=O)CC7)CC5)CC6)nc(N5CCC[C@@](C)(O)C5)c4cn3)c12` (stereo partly drawn) [Compound 377, ((3S,7aS)-7a-(((7-(8-ethyl-7-fluoro-3-hydroxynaphthalen-1-yl)-4-((R)-3-hydroxy-3-methylpiperidin-1-yl)pyrido[4,3-d]pyrimidin-2-yl)oxy)methyl)hexahydro-1H-pyrrolizin-3-yl)methyl 4-((4-(1-(2,6-dioxopiperidin-3-yl)-3-methyl-2-oxo-2,3-dihydro-1H-benzo[d]imidazol-5-yl)piperidin-1-yl)methyl)piperidine-1-carboxylate]: the values for the DC50 on KRAS G12D (class symbols), at KRAS G12V and on KRAS were < 100 nM, < 10 nM and < 1 nM, respectively.

Take `CCc1c(F)ccc2cc(O)cc(-c3ncc4c(N5CCC[C@@](C)(O)C5)nc(OC[C@@]56CCCN5[C@H](COC(=O)N5CCC(F)(CN7CCC(c8ccc9c(c8)n(C)c(=O)n9C8CCC(=O)NC8=O)CC7)CC5)CC6)nc4c3F)c12` (stereo partly drawn) [Compound 156, ((3S,7AS)-7a-(((7-(8-ethyl-7-fluoro-3-hydroxynaphthalen-1-yl)-8-fluoro-4-((R)-3-hydroxy-3-methylpiperidin-1-yl)pyrido[4,3-d]pyrimidin-2-yl)oxy)methyl)hexahydro-1H-pyrrolizin-3-yl)methyl 4-((4-(1-(2,6-dioxopiperidin-3-yl)-3-methyl-2-oxo-2,3-dihydro-1H-benzo[d]imidazol-5-yl)piperidin-1-yl)methyl)-4-fluoropiperidine-1-carboxylate]: the DC50 on KRAS G12D (class symbols) is < 100 nM; on KRAS G12V it was < 10 nM; on KRAS, < 1 nM.

Regarding `CCc1c(F)ccc2cc(O)cc(-c3ncc4c(N5CCC[C@@](C)(O)C5)nc(OC[C@@]56CCCN5[C@@H](COC(=O)N5CCC(COc7ccc8c(c7)n(C)c(=O)n8C7CCC(=O)NC7=O)CC5)CC6)nc4c3F)c12` (stereo partly drawn) [Compound 314, ((3R,7aS)-7a-(((7-(8-ethyl-7-fluoro-3-hydroxynaphthalen-1-yl)-8-fluoro-4-((R)-3-hydroxy-3-methylpiperidin-1-yl)pyrido[4,3-d]pyrimidin-2-yl)oxy)methyl)hexahydro-1H-pyrrolizin-3-yl)methyl 4-(((1-(2,6-dioxopiperidin-3-yl)-3-methyl-2-oxo-2,3-dihydro-1H-benzo[d]imidazol-5-yl)oxy)methyl)piperidine-1-carboxylate], the DC50 on KRAS G12D (setting [1]) is > 100 nM; at KRAS G12V it was > 100 nM; at KRAS, ≥ 10 nM.

Consider `C#Cc1c(F)ccc2cc(O)cc(-c3ncc4c(N5CCC[C@@](C)(O)C5)nc(OC[C@@]56CCCN5[C@H](COC(=O)N5CC7(CC(N8CCC(c9ccc%10c(c9)n(C)c(=O)n%10C9CCC(=O)NC9=O)CC8)C7)C5)CC6)nc4c3F)c12` (stereo partly drawn) [Compound 419, ((3S,7aS)-7a-(((7-(8-ethynyl-7-fluoro-3-hydroxynaphthalen-1-yl)-8-fluoro-4-((R)-3-hydroxy-3-methylpiperidin-1-yl)pyrido[4,3-d]pyrimidin-2-yl)oxy)methyl)hexahydro-1H-pyrrolizin-3-yl)methyl 6-(4-(1-(2,6-dioxopiperidin-3-yl)-3-methyl-2-oxo-2,3-dihydro-1H-benzo[d]imidazol-5-yl)piperidin-1-yl)-2-azaspiro[3.3]heptane-2-carboxylate], for which the DC50 at KRAS G12D (class symbols) is < 100 nM; at KRAS G12V, < 10 nM; at KRAS it was < 1 nM.

Take `C#Cc1c(F)ccc2cc(O)cc(-c3ncc4c(N5CCC[C@@](C)(O)C5)nc(OC[C@@]56CCCN5[C@H](COC(=O)N5CCC7(CCC7CN7CCC(c8ccc9c(c8)n(C)c(=O)n9C8CCC(=O)NC8=O)CC7)CC5)CC6)nc4c3F)c12` (stereo partly drawn) [Compound 327, ((3S,7aS)-7a-(((7-(8-ethynyl-7-fluoro-3-hydroxynaphthalen-1-yl)-8-fluoro-4-((R)-3-hydroxy-3-methylpiperidin-1-yl)pyrido[4,3-d]pyrimidin-2-yl)oxy)methyl)hexahydro-1H-pyrrolizin-3-yl)methyl 1-((4-(1-(2,6-dioxopiperidin-3-yl)-3-methyl-2-oxo-2,3-dihydro-1H-benzo[d]imidazol-5-yl)piperidin-1-yl)methyl)-7-azaspiro[3.5]nonane-7-carboxylate]: the DC50 was < 100 nM at KRAS G12D (class symbols), > 100 nM on KRAS G12V and ≥ 10 nM on KRAS.

Consider `CCc1c(F)ccc2cc(O)cc(-c3ncc4c(N5CCC[C@@H](CO)C5)nc(OC[C@@]56CCCN5[C@H](COC(=O)N5CCC(CN7CCC(c8ccc9c(c8)n(C)c(=O)n9C8CCC(=O)NC8=O)CC7)CC5)CC6)nc4c3F)c12` (stereo partly drawn) [Compound 340, ((3S,7aS)-7a-(((7-(8-ethyl-7-fluoro-3-hydroxynaphthalen-1-yl)-8-fluoro-4-((R)-3-(hydroxymethyl)piperidin-1-yl)pyrido[4,3-d]pyrimidin-2-yl)oxy)methyl)hexahydro-1H-pyrrolizin-3-yl)methyl 4-((4-(1-(2,6-dioxopiperidin-3-yl)-3-methyl-2-oxo-2,3-dihydro-1H-benzo[d]imidazol-5-yl)piperidin-1-yl)methyl)piperidine-1-carboxylate], for which the DC50 at KRAS G12D (class symbols) is < 100 nM; on KRAS G12V, < 10 nM; at KRAS, < 1 nM.

(Values after patent US12599672B2, “KRAS proteolysis targeting chimeras” (PAQ Therapeutics Inc., priority 2023, dated 2026).)
